This is an account of results in patent US8324263B2, “Microbiocidally active carboxamides” (Syngenta Crop Protection, LLC, priority 2007, dated 2012).

One series concerns Botrytis cinerea. The series is described as follows: Action against Botrytis cinerea - fungal growth assay. The following applies: 0.002% active ingredient, PDB broth, 24° C., photometric after 3-4 days. In kind it is cell-based. Here is the method:
Conidia of the fungus from cryogenic storage are directly mixed into nutrient broth (PDB potato dextrose broth). After placing a (DMSO) solution of the test compounds (0.002% active ingredient) into a microtiter plate (96-well format) the nutrient broth containing the fungal spores is added.

Take `Cc1cc(Br)cc(C)c1OCC(C)NC(=O)c1cn(C)nc1C(F)F` (centres unmarked) [Compound 1.168, 3-difluoromethyl-1-methyl-1H-pyrazole-4-carboxylic acid [2-(4-bromo-2,6-dimethyl-phenoxy)-1-methyl-ethyl]-amide]: the melting point (as a rule, the temperature of the solid-liquid transition) lay in the range of 119 to 121 °C.
`CC(COc1c(Br)cc(Br)cc1Br)NC(=O)c1cn(C)nc1C(F)F` (centres unmarked) [Compound 1.193, 3-difluoromethyl-1-methyl-1H-pyrazole-4-carboxylic acid [1-methyl-2-(2,4,6-tribromo-phenoxy)-ethyl]-amide] had a melting point of 122 to 124 °C.
In the series with Botrytis cinerea, `Cn1cc(C(=O)NC2(COc3ccc(Cl)cc3)CC2)c(C(F)F)n1` [Compound 1.221] registered a fungal growth inhibition of 50%.
`CC(COc1ncc(C(F)(F)F)cc1Cl)NC(=O)c1cn(C)nc1C(F)F` (centres unmarked) [Compound 1.239, 3-difluoromethyl-1-methyl-1H-pyrazole-4-carboxylic acid [2-(3-chloro-5-trifluoromethyl-pyridin-2-yloxy)-1-methyl-ethyl]-amide]: the melting point was in the range of 115 to 118 °C. Besides, the inhibition (usually the percentage by which the read-out fell short of the control) at 0.002 % strength in the series with Botrytis cinerea (Botrytis cinerea) is 50%.
